According to patent US20240132463A1, “SUBSTITUTED N-(2-(2,6-DIOXOPIPERIDIN-3-YL)-1,3-DIOXOISOINDOLIN-5-YL)ARYLSULFONAMIDE ANALOGS AS MODULATORS OF CEREBLON PROTEIN” (ST. JUDE CHILDREN'S RESEARCH HOSPITAL, INC., priority 2020, published 2024):

Assays:
[1] = Aqueous solubility assay; format: physicochemical; details: aqueous solubility at pH = 7.4, triplicate
Description: Solubility assays were carried out on a Biomek FX lab automation workstation (Beckman Coulter, Inc., Fullerton, CA) using μSOL Evolution software (pION Inc., Woburn, MA). 10 μL of 10 mM compound stock (in DMSO) was added to 190 μL 1-propanol to make a reference stock plate. 5 μL from this reference stock plate were mixed with 70 μL 1-propanol and 75 μL citrate phosphate-buffered saline (PBS;isotonic) to make the reference plate, and the UV spectrum (250-500 nm) of the reference plate was read. 6 μL of 10 mM test compound stock was added to 594 μL buffer in a 96-well storage plate and mixed. The storage plate was sealed and incubated at RT for 18 h. The suspension was then filtered through a 96-well filter plate (pION Inc., Woburn, MA). 75 μL of filtrate was mixed with 75 μL 1-propanol to make the sample plate, and the UV spectrum of the sample plate was read. Calculations were carried out with μSOL Evolution software based on the area under the curve (AUC) of the UV spectrum of the sample and reference plates. All compounds were tested in triplicate.

[2] = molecular target: GSPT1 (Homo sapiens (Human), UniProt P15170+Q96SW2); assay: GSPT1 degradation by immunoblot in MV4-11 cells; format: cell-based; details: MV4-11 cells, 4 hours, at 100 nM
Chain of GSPT1 (P15170 whole entry): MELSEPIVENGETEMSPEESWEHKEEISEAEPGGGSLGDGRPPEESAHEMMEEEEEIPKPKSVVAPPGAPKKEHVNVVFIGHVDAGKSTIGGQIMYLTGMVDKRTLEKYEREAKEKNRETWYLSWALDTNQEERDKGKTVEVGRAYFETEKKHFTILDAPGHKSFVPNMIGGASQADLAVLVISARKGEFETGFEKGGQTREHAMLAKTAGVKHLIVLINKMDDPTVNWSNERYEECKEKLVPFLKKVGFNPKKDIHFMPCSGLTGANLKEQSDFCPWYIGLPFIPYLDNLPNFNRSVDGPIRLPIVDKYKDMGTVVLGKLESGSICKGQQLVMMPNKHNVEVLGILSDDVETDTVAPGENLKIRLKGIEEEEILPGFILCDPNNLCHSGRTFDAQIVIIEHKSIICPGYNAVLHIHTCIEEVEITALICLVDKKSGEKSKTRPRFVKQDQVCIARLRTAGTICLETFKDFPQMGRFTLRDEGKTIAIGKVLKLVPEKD
Chain of GSPT1 (Q96SW2 whole entry): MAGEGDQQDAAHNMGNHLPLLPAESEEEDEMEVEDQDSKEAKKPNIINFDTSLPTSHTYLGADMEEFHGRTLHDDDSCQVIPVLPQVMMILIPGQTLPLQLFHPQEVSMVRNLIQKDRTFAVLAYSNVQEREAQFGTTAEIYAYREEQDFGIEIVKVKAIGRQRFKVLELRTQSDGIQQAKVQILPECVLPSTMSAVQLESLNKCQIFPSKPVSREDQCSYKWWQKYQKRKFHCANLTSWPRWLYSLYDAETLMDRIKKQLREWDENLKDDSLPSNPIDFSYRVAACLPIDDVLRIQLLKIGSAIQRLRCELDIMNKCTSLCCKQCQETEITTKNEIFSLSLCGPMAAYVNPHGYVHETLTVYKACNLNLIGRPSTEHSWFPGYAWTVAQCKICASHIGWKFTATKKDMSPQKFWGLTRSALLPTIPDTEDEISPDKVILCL
Chain of GSPT1 (Q16531 whole entry partner): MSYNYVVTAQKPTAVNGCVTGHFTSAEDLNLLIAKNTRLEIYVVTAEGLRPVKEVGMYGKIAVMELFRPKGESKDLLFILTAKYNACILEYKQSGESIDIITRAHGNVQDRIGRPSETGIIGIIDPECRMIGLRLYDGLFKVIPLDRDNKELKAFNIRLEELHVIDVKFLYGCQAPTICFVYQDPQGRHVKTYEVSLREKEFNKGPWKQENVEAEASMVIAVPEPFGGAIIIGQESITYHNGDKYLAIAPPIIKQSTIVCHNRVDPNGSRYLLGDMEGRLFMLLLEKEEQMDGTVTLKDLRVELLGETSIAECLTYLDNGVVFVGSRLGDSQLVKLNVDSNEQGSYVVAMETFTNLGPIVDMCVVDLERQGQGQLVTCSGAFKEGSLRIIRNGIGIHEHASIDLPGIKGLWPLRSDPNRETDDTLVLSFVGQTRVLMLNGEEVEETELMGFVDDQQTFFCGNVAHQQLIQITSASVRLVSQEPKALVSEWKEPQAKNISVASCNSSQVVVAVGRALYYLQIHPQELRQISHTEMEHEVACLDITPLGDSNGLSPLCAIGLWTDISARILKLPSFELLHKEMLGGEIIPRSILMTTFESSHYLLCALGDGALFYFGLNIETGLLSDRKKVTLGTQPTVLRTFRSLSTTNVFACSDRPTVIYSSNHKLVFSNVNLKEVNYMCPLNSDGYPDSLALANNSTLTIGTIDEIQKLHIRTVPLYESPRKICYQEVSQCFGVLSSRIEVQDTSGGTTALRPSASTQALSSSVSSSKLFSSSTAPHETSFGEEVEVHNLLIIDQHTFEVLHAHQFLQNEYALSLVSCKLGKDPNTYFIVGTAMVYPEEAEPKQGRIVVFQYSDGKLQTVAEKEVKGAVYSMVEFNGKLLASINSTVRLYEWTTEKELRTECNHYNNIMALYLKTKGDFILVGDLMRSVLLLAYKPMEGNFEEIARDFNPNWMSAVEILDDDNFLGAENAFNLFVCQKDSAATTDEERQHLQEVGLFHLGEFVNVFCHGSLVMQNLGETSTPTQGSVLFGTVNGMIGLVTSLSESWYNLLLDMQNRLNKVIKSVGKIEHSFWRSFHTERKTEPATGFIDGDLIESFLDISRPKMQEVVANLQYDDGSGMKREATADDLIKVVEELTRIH
Description: (§1) MV4-11 cells were seeded in 6-well plates (1×10^6 cells per well). After overnight incubation, the cells were treated with indicated concentrations for specific timepoints. […] After blocking the membrane with LI-COR TBS blocking buffer and incubation in primary antibody overnight, the corresponding protein signals were detected using IRDye secondary antibodies and Odyssey Imaging System. Image Studio Lite Ver 5.2 was used for blot quantification. […] IRDye® 800CW Goat anti-Mouse IgG Secondary Antibody and IRDye® 68ORD Goat anti-Rabbit IgG Secondary Antibody were used as secondary antibodies.

[3] = molecular target: IKZF1 (Homo sapiens (Human), UniProt Q13422+Q96SW2); assay: IKZF1 degradation by immunoblot in MV4-11 cells; format: cell-based; details: MV4-11 cells
Description: as §1

[4] = Liver microsomes stability assay (human); format: in vitro ADME
Description: The liver microsome stability assay was carried as previously described (Refs. 40-41). NADPH regenerating agent solutions A and B and mouse liver microsomes (CD-1) were obtained from BD Gentest (Woburn, MA). Pooled human liver microsomes were purchased from XenoTech (Lenexa, KS). Ninety-six deep well plates were obtained from Midsci (St. Louis, MO). Ninety-six analytical plates were obtained from Corning Incorporated (Acton, MA). Sample preparation for microsomal stability was modified from Di's publications. A set of incubation times of 0, 15, 30, 60, 120, and 240 min were used. DMSO stock solutions of test compounds and verapamil (system control) were prepared at 10 mM concentration. Concentrated human or mouse liver microsomes (20 mg/mL protein concentration) and 0.5 M EDTA were diluted into 0.1 M potassium phosphate buffer (pH 7.4) and mixed well, followed by compounds solutions being spiked. This solution was mixed and 90 μL was transferred to 6 time points plates (each in triplicate wells). For the time 0 h plate, 3 fold (v:v) cold acetonitrile with internal standard (40 ng/ml warfarin) was added to each well, followed by addition of NADPH regenerating agent (mixing NADPH solutions A and B in PBS, pH7.4) and no incubation. […] The metabolic stability was evaluated via the half-life from least-squares fit of the multiple time points based on first-order kinetics.

[5] = Plasma protein binding assay (human); format: in vitro ADME
Description: Stock solutions were prepared at 10 mM in DMSO. Dulbecco's phosphate buffered saline (DPBS; pH 7.4) was obtained from Invitrogen (Carlsbad, CA). Single-Use RED (rapid equilibrium dialysis) device was obtained from Thermo scientific (Rockford, IL). Human and mouse plasma were obtained from GeneTex (Irvine, CA). Sample preparation for plasma protein binding was modified from Waters' method (see Waters, N.J., et al., J Pharm Sci. 2008 October; 97(10):4586-95). The Teflon base plate with the RED inserts was used without any pre-conditioning the membrane inserts. Plasma was thawed and centrifuged at 1000 rpm for 10 min to remove any particulates. Each compound was prepared at 10 μM in human or mouse plasma. Spiked plasma solutions (300 μL) were placed into the sample chamber (indicated by the red ring) and 500 μL of DPBS into the adjacent chamber. The plate was sealed and incubated at 37° C. on an orbital shaker (100 rpm) for 4 hours. After incubation, the seal was removed from the RED plate and the volume of the insert confirmed-little to no volume change occurred. […] The test compound concentrations were quantified in both buffer and plasma chambers via peak areas relative to the internal standard. The percentage of the test compound bound to plasma was calculated on following equations: % Free=(Concentration buffer chamber/concentration plasma chamber)×100% and % Bound=100%-% Free.

[6] = system: MV4-11 cells; assay: Lenalidomide competition assay; format: cell-based, human; details: co-treatment with lenalidomide 10 μM, 72 h
Description: Compounds were screened in human cancer cell lines and each cell line was cultured in the complete medium recommended by the vendor and seeded in Corning 8804BC white 384-well assay plates at density of 1,000, 1,000, 1,000, 1,500 and 7,500 cells per well, for MV4-11, HD-MB03, MB004, MB002 and MHH-CALL4 cells respectively. After overnight incubation at 37° C. in a humidified 5% CO2 incubator, cells were treated with compounds in dose-response format using a Pintool on a Biomek FXP Laboratory Automation Workstation (Beckman Coulter). […] After 72 h incubation, cell proliferation was assessed using Cell Titer-Glo (CTG) luminescent cell viability assay (Promega) according to the manufacturer's instruction. Luminescence signal was measured using an Envision plate reader (Perkin-Elmer).

[7] = system: CRBN knockout MV4-11 cells; assay: Cell viability in CRBN knockout MV4-11 cells; format: cell-based, human; details: CRBN knockout vs wild-type MV4-11 cells
Description: MV-4-11 cell line was purchased from the American Type Culture Collection (ATCC, Manassas, VA). The cells were cultured according to recommendations in IMDM cell culture media (ATCC). Exponentially growing MV-4-11 cells were plated at 1,000 cells per well in Corning 8804BC white 384-well assay plates and incubated overnight at 37° C. in a humidified 5% CO2 incubator. Compounds were transferred to the assay plate from a dose-response plate using a Pintool on a Biomek FXP Laboratory Automation Workstation (Beckman Coulter). Cytotoxicity was determined following 72 hours of incubation using Promega Cell Titer Glo reagent according to the manufacturer's recommendation. Luminescence was measured on an Envision plate reader (Perkin-Elmer).
CRBN-deficient MV4:11 cells were generated using CRISPR-Cas9 technology. […] Five days post nucleofection, cells were single-cell sorted by FACs to enrich for GFP+(transfected) cells, clonally selected, and verified for the desired targeted modification via targeted deep sequencing using gene specific primers with partial Illumina adapter overhangs (hCRBN.F—5′-[sequence]-3′ (SEQID: 6) and hCRBN.R—5′-[sequence]-3′, (SEQID: 7); overhangs not shown) and analyzed using CRIS.py (Ref. 36).

In the case of `O=C1CCC(N2C(=O)c3ccc(NS(=O)(=O)c4ccccc4OC(F)(F)F)cc3C2=O)C(=O)N1` (stereo not drawn) [Compound 1, N-(2-(2,6-dioxopiperidin-3-yl)-1,3-dioxoisoindolin-5-yl)-2-(trifluoromethoxy)benzenesulfonamide], the Sol. [1] is reported as 67 µM, the GSPT1 protein degradation [2] is reported as 90% and the “IKZF1 degradation at 4 hours” value ([3]; 4 hours, any concentration tested) is reported as “did not significantly degrade IKZF1”. For the same compound, the IKZF1 protein abundance ([3]; treatment over 24 hours) was “dose-dependent decrease”, the “intrinsic clearance Clint” value [4] was 4 mL/min/kg and the “liver microsomes t1/2” value [4] was 5.7 h. The Plasma protein binding [5] was 99.1%, the “antiproliferative effect in presence of lenalidomide” value [6] was “abrogating the antiproliferative effects” and the “antiproliferative activity in absence of CRBN” value [7] was “abolished”.
